Assay results taken from patent publication US20200131669A1, “CYCLIC PEPTIDE COMPOUND HAVING HIGH MEMBRANE PERMEABILITY, AND LIBRARY CONTAINING SAME” (Chugai Seiyaku Kabushiki Kaisha, priority 2017, published 2020).
Positions of bridges follow the written chain, without caps; N, C: chain ends. Non-standard residues stand in square brackets, D forms with d. Residues, ends and D or L forms follow the SMILES beside them. *: point of attachment. 3Pal(6-NMe2) = CN(C)c1ccc(C[C@H](N)C(=O)O)cn1; NMePhe(3-Cl) = CN[C@@H](Cc1cccc(Cl)c1)C(=O)O; Gly(NCH2CH2Ph) = O=C(O)CNCCc1ccccc1; N(isopentyl)Gly = CC(C)CCNCC(=O)O; NMeF = CN[C@@H](Cc1ccccc1)C(=O)O; NMeL = CN[C@@H](CC(C)C)C(=O)O; NMeV = CN[C@H](C(=O)O)C(C)C; NMeAbu = CC[C@H](NC)C(=O)O; NPentylGly = CCCCCNCC(=O)O; NMeS = CN[C@@H](CO)C(=O)O; NMeA = CN[C@@H](C)C(=O)O; Piperidide = C1CCN(*)CC1; Abu = CC[C@H](N)C(=O)O; NBuGly = CCCCNCC(=O)O; Isopentyl = CC(C)CC*; Sar = CNCC(=O)O; tBu = CC(C)(C)*; Propyl = CCC*

assay: Caco-2 membrane permeability, improved method as used in the following Examples (96-well, 20 to 24 h preincubation); type: in vitro ADME; conditions: human, Caco-2, Caco-2
Procedure, shortened: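 Caco-2 monolayers were grown three weeks and preincubated 20–24 h at 37 °C with compound in DMEM+FaSSIF (1% DMSO) apically. The assay then used compound in FaSSIF/HBSS (1% DMSO, pH 6.0) apically and HBSS with 4% BSA (pH 7.4) basally. Basal samples were taken at 180 min for LC/MS, and Papp (cm/sec) was calculated.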

SMILES | Papp A→B at 180 min [×10⁻⁶ cm/s]
CCCCN1CC(=O)N(C)[C@@H](C)C(=O)N[C@H](C(=O)N2CCCCC2)CC(=O)N(C)[C@@H](C(C)C)C(=O)N[C@@H](CC(C)C)C(=O)N(C)[C@@H](CC(C)C)C(=O)N(C)[C@@H](Cc2cccc(Cl)c2)C(=O)N[C@@H](Cc2ccc(N(C)C)nc2)C(=O)N(C)[C@@H](C)C(=O)N(C)[C@@H](CC(C)C)C(=O)N[C@@H]([C@@H](C)O)C1=O [pd399] ([NMeV]L[NMeL][NMePhe(3-Cl)][3Pal(6-NMe2)][NMeA][NMeL]T[NBuGly][NMeA]D-Piperidide; lactam N-11) | 1.5
CCCCN1CC(=O)N(C)[C@@H](CC(C)C)C(=O)N[C@H](C(=O)N2CCCCC2)CC(=O)N(C)[C@@H](C)C(=O)N[C@@H](Cc2ccc(N(C)C)nc2)C(=O)N(C)[C@@H](C)C(=O)N(C)[C@@H](C)C(=O)N[C@@H](CC(C)C)C(=O)N(C)[C@@H](Cc2cccc(Cl)c2)C(=O)N(C)[C@@H](CC(C)C)C(=O)N[C@@H]([C@@H](C)O)C1=O [pd400] ([NMeA][3Pal(6-NMe2)][NMeA][NMeA]L[NMePhe(3-Cl)][NMeL]T[NBuGly][NMeL]D-Piperidide; lactam N-11) | 2.3
CCCOC[C@H]1C(=O)N[C@@H](Cc2ccc(N(C)C)nc2)C(=O)N(C)[C@@H](Cc2cccc(Cl)c2)C(=O)N(C)[C@@H](C)C(=O)N[C@@H]([C@@H](C)O)C(=O)N(CCC(C)C)CC(=O)N(C)[C@@H](C(C)C)C(=O)N[C@H](C(=O)N2CCCCC2)CC(=O)N(C)[C@@H](C)C(=O)N[C@@H](CC(C)C)C(=O)N(C)[C@@H](CC(C)C)C(=O)N1C [pd401] ([NMeA]L[NMeL][NMeS](Propyl)[3Pal(6-NMe2)][NMePhe(3-Cl)][NMeA]T[N(isopentyl)Gly][NMeV]D-Piperidide; lactam N-11) | 2.9
CCCCN1CC(=O)N(C)[C@@H](CC(C)C)C(=O)N[C@@H](Cc2ccc(N(C)C)nc2)C(=O)N(C)[C@@H](CC(C)C)C(=O)N[C@@H]([C@@H](C)O)C(=O)N(C)CC(=O)N(C)[C@@H](Cc2ccccc2)C(=O)N(C)[C@@H](CC(C)C)C(=O)N[C@@H](COCCC(C)C)C(=O)N(C)[C@@H](C)C(=O)N[C@H](C(=O)N2CCCCC2)CC1=O [pd402] ([NBuGly][NMeL][3Pal(6-NMe2)][NMeL]T[Sar][NMeF][NMeL]S(Isopentyl)[NMeA]D-Piperidide; lactam N-11) | 1
CCCCCN1CC(=O)N(C)[C@@H](CC(C)C)C(=O)N[C@H](C(=O)N2CCCCC2)CC(=O)N(C)[C@@H](C(C)C)C(=O)N[C@@H](CC(C)C)C(=O)N(C)[C@@H](CC)C(=O)N(C)[C@@H](Cc2ccccc2)C(=O)N[C@@H](C)C(=O)N(C)[C@@H](Cc2ccccc2)C(=O)N(C)[C@@H](CC)C(=O)N[C@@H]([C@@H](C)O)C1=O [pd403] ([NMeV]L[NMeAbu][NMeF]A[NMeF][NMeAbu]T[NPentylGly][NMeL]D-Piperidide; lactam N-11) | 9
CCCCCN1CC(=O)N(C)[C@@H](Cc2ccccc2)C(=O)N(C)[C@@H](CC(C)C)C(=O)N[C@@H](COC(C)(C)C)C(=O)N(C)[C@@H](CC(C)C)C(=O)N[C@H](C(=O)N2CCCCC2)CC(=O)N(C)CC(=O)N(C)[C@@H](Cc2ccccc2)C(=O)N[C@@H](C(C)C)C(=O)N(C)[C@@H](C)C(=O)N[C@@H]([C@@H](C)O)C1=O [pd404] ([Sar][NMeF]V[NMeA]T[NPentylGly][NMeF][NMeL]S(tBu)[NMeL]D-Piperidide; lactam N-11) | 1.3
CCCCCN1CC(=O)N(C)[C@@H](Cc2ccccc2)C(=O)N[C@@H](CC(C)C)C(=O)N(C)[C@@H](CC)C(=O)N[C@@H]([C@@H](C)O)C(=O)N(C)CC(=O)N(C)[C@@H](Cc2ccccc2)C(=O)N(C)[C@@H](CC)C(=O)N[C@@H](COC(C)(C)C)C(=O)N(C)[C@@H](CC(C)C)C(=O)N[C@H](C(=O)N2CCCCC2)CC1=O [pd405] ([NPentylGly][NMeF]L[NMeAbu]T[Sar][NMeF][NMeAbu]S(tBu)[NMeL]D-Piperidide; lactam N-11) | 2.2
CCCCCN1CC(=O)N[C@@H]([C@@H](C)O)C(=O)N(C)[C@@H](C)C(=O)N(C)[C@@H](CC(C)C)C(=O)N[C@@H](COC(C)(C)C)C(=O)N(C)[C@@H](Cc2ccccc2)C(=O)N(C)[C@@H](CC(C)C)C(=O)N[C@H](C(=O)N2CCCCC2)CC(=O)N[C@H](C)C(=O)N(C)[C@@H](Cc2ccccc2)C(=O)N[C@@H](C(C)C)C1=O [pd407] ([dA][NMeF]V[NPentylGly]T[NMeA][NMeL]S(tBu)[NMeF][NMeL]D-Piperidide; lactam N-11) | 3
CCCCCN1CC(=O)N[C@@H]([C@@H](C)O)C(=O)N(C)CC(=O)N(C)[C@@H](CC(C)C)C(=O)N[C@H](C(=O)N2CCCCC2)CC(=O)N(C)[C@@H](CC)C(=O)N[C@@H](CC(C)C)C(=O)N(C)[C@@H](CC(C)C)C(=O)N(C)[C@@H](Cc2ccccc2)C(=O)N[C@@H](CC)C(=O)N(C)[C@@H](Cc2ccccc2)C1=O [pd408] ([NMeAbu]L[NMeL][NMeF][Abu][NMeF][NPentylGly]T[Sar][NMeL]D-Piperidide; lactam N-11) | 1.8
CC[C@H]1C(=O)N[C@@H]([C@@H](C)O)C(=O)N(CCc2ccccc2)CC(=O)N(C)[C@@H](CC(C)C)C(=O)N[C@H](COC(C)(C)C)C(=O)N(C)[C@@H](CC(C)C)C(=O)N(C)[C@@H](CC)C(=O)N[C@H](C(=O)N2CCCCC2)CC(=O)N[C@H](C)C(=O)N(C)[C@@H](Cc2ccccc2)C(=O)N[C@@H](CC(C)C)C(=O)N1C [pd409] ([dA][NMeF]L[NMeAbu]T[Gly(NCH2CH2Ph)][NMeL][dS](tBu)[NMeL][NMeAbu]D-Piperidide; lactam N-11) | 1.4
CC[C@H]1C(=O)N(C)[C@@H](Cc2ccccc2)C(=O)N[C@@H](C)C(=O)N(C)[C@@H](CC(C)C)C(=O)N(C)[C@@H](CC)C(=O)N[C@@H]([C@@H](C)O)C(=O)N(CCc2ccccc2)CC(=O)N(C)[C@@H](CC(C)C)C(=O)N[C@H](C(=O)N2CCCCC2)CC(=O)N(C)[C@@H](C(C)C)C(=O)N[C@@H](CC(C)C)C(=O)N1C [pd410] ([NMeV]L[NMeAbu][NMeF]A[NMeL][NMeAbu]T[Gly(NCH2CH2Ph)][NMeL]D-Piperidide; lactam N-11) | 6
CC[C@H](C)[C@@H]1NC(=O)[C@H](CC(C)C)N(C)C(=O)CN(C)C(=O)C[C@@H](C(=O)N2CCCCC2)NC(=O)[C@H](CC(C)C)N(C)C(=O)[C@@H](COC(C)(C)C)NC(=O)[C@H](CC)N(C)C(=O)[C@H](Cc2ccccc2)N(C)C(=O)CN(CCc2ccccc2)C(=O)[C@H]([C@@H](C)O)NC(=O)[C@H](CC)N(C)C1=O [pd411] ([Sar][NMeL]I[NMeAbu]T[Gly(NCH2CH2Ph)][NMeF][NMeAbu][dS](tBu)[NMeL]D-Piperidide; lactam N-11) | 3.3
CC[C@H]1C(=O)N[C@@H]([C@@H](C)O)C(=O)N(C)CC(=O)N(C)[C@@H](Cc2ccccc2)C(=O)N(C)[C@@H](CC)C(=O)N[C@@H](COC(C)(C)C)C(=O)N(C)[C@@H](CC(C)C)C(=O)N[C@H](C(=O)N2CCCCC2)CC(=O)N(CCc2ccccc2)CC(=O)N(C)[C@@H](CC(C)C)C(=O)N[C@@H](CC(C)C)C(=O)N1C [pd412] ([Gly(NCH2CH2Ph)][NMeL]L[NMeAbu]T[Sar][NMeF][NMeAbu]S(tBu)[NMeL]D-Piperidide; lactam N-11) | 1.5
CC[C@H](C)[C@@H]1NC(=O)[C@H](CC(C)C)N(C)C(=O)[C@@H](CC(C)C)NC(=O)C[C@@H](C(=O)N2CCCCC2)NC(=O)[C@H](CC(C)C)N(C)C(=O)[C@H](Cc2ccccc2)N(C)C(=O)[C@H](COC(C)(C)C)NC(=O)CN(CCc2ccccc2)C(=O)CN(C)C(=O)[C@H]([C@@H](C)O)NC(=O)[C@H](CC)N(C)C1=O [pd413] ([dL][NMeL]I[NMeAbu]T[Sar][Gly(NCH2CH2Ph)]S(tBu)[NMeF][NMeL]D-Piperidide; lactam N-11) | 1.5
CC[C@H](C)[C@@H]1NC(=O)[C@H](CC(C)C)N(C)C(=O)[C@@H](C)NC(=O)C[C@@H](C(=O)N2CCCCC2)NC(=O)[C@H](CC)N(C)C(=O)[C@H](Cc2ccccc2)N(C)C(=O)[C@H](COC(C)(C)C)NC(=O)[C@H](CC(C)C)N(C)C(=O)[C@H](CC)N(C)C(=O)[C@H]([C@@H](C)O)NC(=O)CN(CCc2ccccc2)C1=O [pd414] ([dA][NMeL]I[Gly(NCH2CH2Ph)]T[NMeAbu][NMeL]S(tBu)[NMeF][NMeAbu]D-Piperidide; lactam N-11) | 1.6
CC[C@@H]1NC(=O)[C@H](Cc2ccccc2)N(C)C(=O)[C@H](CC(C)C)N(C)C(=O)[C@H](CC(C)C)NC(=O)[C@H](CC)N(C)C(=O)C[C@@H](C(=O)N2CCCCC2)NC(=O)[C@H](CC(C)C)N(C)C(=O)CN(C)C(=O)[C@H]([C@@H](C)O)NC(=O)CN(CCc2ccccc2)C(=O)[C@H](CC(C)C)N(C)C1=O [pd415] ([NMeAbu]L[NMeL][NMeF][Abu][NMeL][Gly(NCH2CH2Ph)]T[Sar][NMeL]D-Piperidide; lactam N-11) | 3.3

same assay, conditions: human; Papp, Caco-2 membrane permeability, improved method; read-out: Caco-2

SMILES | Papp A→B at 180 min [×10⁻⁶ cm/s]
CCCCN1CC(=O)N(C)[C@@H](CC(C)C)C(=O)N[C@H](C(=O)N2CCCCC2)CC(=O)N(C)[C@@H](C)C(=O)N[C@@H](Cc2ccc(N(C)C)nc2)C(=O)N(C)[C@@H](CC(C)C)C(=O)N(C)[C@@H](Cc2ccccc2)C(=O)N[C@@H](CC(C)C)C(=O)N(C)[C@@H](C)C(=O)N(C)[C@@H](CC(C)C)C(=O)N[C@@H]([C@@H](C)O)C1=O [pd398] ([NMeA][3Pal(6-NMe2)][NMeL][NMeF]L[NMeA][NMeL]T[NBuGly][NMeL]D-Piperidide; lactam N-11) | 2.7
